Experiments:
Urea transporter 1 = molecular target: T1, Urea transporter 1 (Rattus norvegicus, UniProt P97689); assay: UT-B Inhibition Assay
T1 sequence (P97689 whole entry): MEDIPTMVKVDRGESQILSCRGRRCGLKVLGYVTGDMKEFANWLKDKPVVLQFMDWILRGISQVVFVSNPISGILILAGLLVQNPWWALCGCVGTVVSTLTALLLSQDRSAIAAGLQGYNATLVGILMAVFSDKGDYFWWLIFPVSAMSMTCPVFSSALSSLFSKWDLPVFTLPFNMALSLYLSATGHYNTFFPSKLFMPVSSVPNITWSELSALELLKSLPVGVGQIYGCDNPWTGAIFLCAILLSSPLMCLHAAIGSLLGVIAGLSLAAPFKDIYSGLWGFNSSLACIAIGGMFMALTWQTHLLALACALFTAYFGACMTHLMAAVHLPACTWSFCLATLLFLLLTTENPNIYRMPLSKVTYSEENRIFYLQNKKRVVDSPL
Experimental: Erythrocyte suspension (100 µL) was added to each well of a 96-well microplate to which test compounds were added. After 15 min incubation, 20 µL of the erythrocyte suspension was added to each well of a 96-well plate containing 180 µL PBS containing 1% DMSO, followed by vigorous mixing. The absorbance was measured at 710 nm.

Urea transporter 2 = molecular target: T2, Urea transporter 2 (Rattus norvegicus, UniProt Q62668); assay: UT-A1 Inhibition Assay
T2 sequence (Q62668 whole entry): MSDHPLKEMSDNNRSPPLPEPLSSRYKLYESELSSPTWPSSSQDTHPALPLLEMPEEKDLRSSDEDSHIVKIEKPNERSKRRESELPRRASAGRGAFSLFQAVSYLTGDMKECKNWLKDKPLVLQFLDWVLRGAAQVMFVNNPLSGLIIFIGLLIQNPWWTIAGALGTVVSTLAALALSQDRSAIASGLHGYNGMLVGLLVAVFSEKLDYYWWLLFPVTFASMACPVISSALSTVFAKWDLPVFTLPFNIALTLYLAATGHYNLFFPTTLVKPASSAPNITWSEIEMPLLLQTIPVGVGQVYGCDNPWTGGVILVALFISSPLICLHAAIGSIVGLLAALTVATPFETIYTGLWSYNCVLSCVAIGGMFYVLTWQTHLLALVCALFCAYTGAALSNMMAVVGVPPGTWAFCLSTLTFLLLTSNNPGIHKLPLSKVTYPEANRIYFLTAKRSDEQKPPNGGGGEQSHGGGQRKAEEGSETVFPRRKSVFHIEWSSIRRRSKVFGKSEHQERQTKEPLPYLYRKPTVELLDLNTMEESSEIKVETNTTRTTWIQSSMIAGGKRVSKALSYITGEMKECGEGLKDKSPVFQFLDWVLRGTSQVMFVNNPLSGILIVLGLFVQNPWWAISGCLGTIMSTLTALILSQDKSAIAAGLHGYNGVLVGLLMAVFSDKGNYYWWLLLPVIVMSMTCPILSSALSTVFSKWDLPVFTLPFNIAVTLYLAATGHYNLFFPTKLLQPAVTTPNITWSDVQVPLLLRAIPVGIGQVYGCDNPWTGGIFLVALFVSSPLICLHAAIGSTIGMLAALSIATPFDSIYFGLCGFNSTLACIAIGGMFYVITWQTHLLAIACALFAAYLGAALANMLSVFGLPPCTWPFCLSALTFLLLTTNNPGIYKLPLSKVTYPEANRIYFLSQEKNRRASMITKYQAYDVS
Experimental: The urea concentration dependence of UT-A1 inhibition was studied from inhibitor concentration response data (0.3 - 60 µM) using different of urea gradients (200 - 1,600 mM). The kinetics of UT-A1 inhibition was measured by adding inhibitors (3 µM) at different times prior to assay.

Row | SMILES | IC50 (Urea transporter 1) | IC50 (Urea transporter 2)
1 | Cc1ccc(C)c(S(=O)(=O)c2nnn3c2nc(NC(C)C)c2sccc23)c1 | 15 µM | 3.8 µM
2 | CCc1ccc(S(=O)(=O)c2nnn3c2nc(NCCCOC)c2sccc23)cc1 | 28 µM | > 50 µM
3 | CSc1nc(Nc2ccc(Nc3ccccc3)cc2)nc(SC)n1 [1‐N‐[bis(methylsulfanyl)‐1,3,5‐triazin‐2‐yl]‐4‐N‐ phenylbenzene‐1,4‐diamine] | > 50 µM | 45 µM
4 | CC(=O)OCCOc1ccccc1/C=C1/SC(=N)NC1=O [2‐(2‐{[(5E)‐2‐imino‐4‐oxo‐1,3‐thiazolidin‐5‐ ylidene]methyl}phenoxy)ethyl acetate] | 4.8 µM | 3.7 µM
5 | COc1cccc(Nc2nc(Nc3ccc(C)cc3)nc(Sc3ccc(C)cc3)n2)c1 [2‐N‐(3‐methoxyphenyl)‐4‐N‐(4‐methylphenyl)‐6‐[(4‐ methylphenyl)sulfanyl]‐1,3,5‐triazine‐2,4‐diamine] | 42 µM | > 50 µM
6 | COc1cccc(CNC(=O)c2ccc3cccc(O)c3n2)c1 [8‐hydroxy‐N‐[(3‐methoxyphenyl)methyl]quinoline‐2‐carboxamide] | > 50 µM | 
7 | COc1ccc(Nc2cc(C(=O)N3CCSCC3)nc3c(OC)cccc23)cc1 [8‐methoxy‐N‐(4‐methoxyphenyl)‐2‐(thiomorpholine‐4‐ carbonyl)quinolin‐4‐amine] | 6.2 µM | 3.5 µM
8 | COc1cccc2c(Nc3cccc(SC)c3)cc(C(=O)N3CCCCC3)nc12 [8‐methoxy‐N‐[3‐(methylsulfanyl)phenyl]‐2‐ (piperidine‐1‐carbonyl)quinolin‐4‐amine] | 20 µM | 3.8 µM
9 | O=S(=O)(c1ccc(Br)cc1)c1nnn2c1nc(N=S1C=CC=C1)c1sccc12 [10‐(4‐bromobenzenesulfonyl)‐N‐[(1Z)‐1λ⁴‐thiophen‐1‐ ylidene]‐5‐thia‐1,8,11,12‐ tetraazatricyclo[7.3.0.0 ,⁶]dodeca‐2(6),3,7,9,11‐ pentaen‐7‐amine] | 2.8 µM | > 50 µM
10 | [H]/N=C1/NC(=O)/C(=C\c2cccc(OC)c2OC)S1 [(5E)‐5‐[(2,3‐dimethoxyphenyl)methylidene]‐2‐imino‐1,3‐thiazolidin‐4‐one] | 43 µM | 7 µM
11 | COc1cccc(/C=C2/SC(=N)NC2=O)c1O [(5E)‐5‐[(2‐hydroxy‐3‐methoxyphenyl)methylidene]‐2‐ imino‐1,3‐thiazolidin‐4‐one] | 6.3 µM | 4.6 µM
12 | COc1cc(/C=C2/SC(=N)NC2=O)ccc1O [(5E)‐5‐[(4‐hydroxy‐3‐methoxyphenyl)methylidene]‐2‐ imino‐1,3‐thiazolidin‐4‐one] | 6.2 µM | 25 µM
13 | COc1ccc(Nc2cc(C(=O)N3CCSCC3)nc3c(OC)cccc23)cc1Cl [N‐(3‐chloro‐4‐methoxyphenyl)‐8‐methoxy‐2‐ (thiomorpholine‐4‐carbonyl)quinolin‐4‐amine] | 27 µM | 19 µM
14 | COc1cccc2c(Nc3ccc(C)c(Cl)c3)cc(C(=O)N3CCCCC3)nc12 [N‐(3‐chloro‐4‐methylphenyl)‐8‐methoxy‐2‐ (piperidine‐1‐carbonyl)quinolin‐4‐amine] | > 50 µM | 24 µM
15 | COc1cccc2c(Nc3ccc(C)c(F)c3)cc(C(=O)N3CCCCC3)nc12 [N‐(3‐fluoro‐4‐methylphenyl)‐8‐methoxy‐2‐ (piperidine‐1‐carbonyl)quinolin‐4‐amine] | > 50 µM | 25 µM
16 | CCOc1ccc(Nc2cc(C(=O)N3CCCCC3)nc3c(OC)cccc23)cc1 [N‐(4‐ethoxyphenyl)‐8‐methoxy‐2‐(piperidine‐1‐ carbonyl)quinolin‐4‐amine] | 16 µM | 3.3 µM
17 | CCOc1ccc(Nc2cc(C(=O)N3CCSCC3)nc3c(OC)cccc23)cc1 [N‐(4‐ethoxyphenyl)‐8‐methoxy‐2‐(thiomorpholine‐4‐ carbonyl)quinolin‐4‐amine] | 34 µM | 24 µM
18 | CNc1nc2c(S(=O)(=O)c3ccccc3)nnn2c2ccsc12 [UT-A1 inhibitor D2] | 35 µM | > 50 µM
